From paper PMC7600788, “Sequence Permutation Generates Peptides with Different Antimicrobial and Antibiofilm Activities” (Pharmaceuticals, 2020)
No end group written: not given here.

How the values were obtained:
[1] = system: E. coli ML35p; test: Simultaneous outer and inner membrane permeation (nitrocefin / ONPG); type: cell-based, Escherichia coli; conditions: 3.1 µM
Source text: To confirm the mechanism of action, we also performed membrane permeation using a reporter strain of E. coli ML35p. This strain enabled simultaneous monitoring of membrane permeation of both the inner and outer membranes of Gram-negative bacterium E. coli. Both WW295 and WW298 were included in the experiment. […] This is indicated by the sharp development of absorbance at 490 nm for nitrocefin (panel A) and at 420 nm for ONPG (panel B).
The E. coli ML-35p strain was utilized to probe the permeation of both the outer membrane (OM) and inner membrane (IM). This strain was engineered to have two membrane reporters. Nitrocefin is used for detection of OM permeabilization. Nitrocefin is excluded from the periplasm. […] The chromogenic cleavage product was spectrophotometrically monitored at 490 nm. […] However, permeabilization of the IM helps ONPG to enter cytoplasm and get cleaved by cytoplasmic β-galactosidase into o-nitrophenol, which can be detected spectrophotometrically at 420 nm. […] Absorbances at both 490 and at 420 nm were monitored using FLUOstar Omega (BMG, Labtech, NC, USA) simultaneously. After shaking at 100 rpm, readings were taken every 2 min for a total of 40 min at 37 °C. Data were analyzed using the MARS data analysis software provided by the manufacturer and representative plots were made using the GraphPad Prism 7 software.

[2] = system: S. aureus USA300 LAC; test: Membrane depolarization, DiBAC4(3); type: cell-based, Staphylococcus aureus; conditions: 12.5 µM
Method: Bacteria surfaces are negative and cationic peptides are able to neutralize the negative charge, thereby reducing membrane potential. To test this possibility, we evaluated the peptides against S. aureus USA300 LAC using a fluorescent indicator dye, the DiBAC4(3) (Figure 5).
The overnight culture of S. aureus USA300 LAC was grown in TSB media to the exponential phase. Cells were then pelleted and washed with PBS twice, and re-suspended in twice the volume of PBS containing 25 mM glucose for 15 min at 37 °C. For membrane depolarization measurements, 250 nM (final concentration) of the dye DiBAC4(3) (bis-(1,3-dibutylbarbituric acid) trimethine oxonol (ANASPEC, Fremont, CA, USA) was added, and vortexed gently. Ninety microliters of the energized bacteria solution were then added in a 96-well microtiter plate (Corning COSTAR). The plate was immediately placed into a FLUOstar Omega (BMG LABTECH Inc., Cary, NC, USA) microplate reader and fluorescence was measured for 20 min. Once the readings are stabilized, 10 μL of peptide solution were added and the fluorescence readings were continued for another 40 min. Measurements were done at an excitation and emission wavelengths of 485 and 520 nm, respectively. Triton X-100 (0.1%) was included as a positive control.

[3] = system: S. aureus USA300 LAC; test: Inhibition of biofilm attachment (XTT); type: cell-based, Staphylococcus aureus; conditions: 12.5 µM; 1 h, XTT
Source text: Antimicrobial effects of the peptides are different on diverse forms of bacteria. The free and motile forms cultivated in laboratories are the planktonic bacteria onto which the peptides and antibiotics can have direct effects. However, the activity of the microbicides can be reduced to the biofilm forms where bacteria are less exposed and hidden inside the shield. The development of the biofilms starts with the attachment of the individual cells on the substratum followed by biofilm growth and maturation into more solid biomass. We tested the ability of WW295 and WW298 in fighting the biofilms of S. aureus USA300 LAC at the two stages. […] These 96-well commercial plates were pre-treated commercially with tissue culture to enhance cell adhesion.
This experiment was performed to measure the ability of the peptide to inhibit bacterial attachment, the initial step for biofilm formation. In short, an overnight culture of S. aureus USA300 was grown in TSB media to an optical density (600 nm) of ∼1.0. […] Live cells in the biofilms were then quantitated using XTT [2,3-bis(2-methyloxy-4-nitro-5-sulfophenyl)-2H-tertazolium-5-carboxanilide] assay by following the manufacturer’s instructions with modifications. […] Absorbance at 450 nm (only media with XTT containing wells served as the blank) was obtained using a Chromate^TM microtiter plate reader. […]

[4] = system: S. aureus USA300 LAC; test: Disruption of 24 h established biofilms (XTT); type: cell-based, Staphylococcus aureus; conditions: 24 h treatment
Method: We also compared the effects of the peptides on established biofilms (24 h). […] When cells are alive (in the absence of peptide), the cell-permeant calcein-AM dye could enter the cells and gave green color as a consequence of the removal of acetoxymethyl (AM) esters by intracellular esterase (Figure 7A). When the cells were dead due to membrane damage by the peptide, the red dye ethidium homodimer (non-membrane permeable) could enter the cell and become red by binding to nucleic acids (Figure 7B).
The antibiofilm activity of the peptide against 24 h established biofilms was evaluated as previously described. In short, S. aureus USA300 LAC (10^5 CFU/mL) was made from exponential phase bacteria in TSB media and 180 μL were distributed to each well of the microtiter plate (Corning Costar Cat No. 3595, Amsterdam, The Netherlands). The plates were incubated at 37 °C for 24 h to form a biofilm. Culture treated with water served as a positive control while media without bacterial inoculation served as the negative control. Media were then pipetted out and the attached biofilms were washed with 1× PBS to remove the planktonic bacteria. Each well of the plate was then filled with 20 μL of 10× peptide solution and 180 μL of fresh TSB media and the plates were further incubated at 37 °C for 24 h. Media were then pipetted out and the wells were washed with 1× PBS to remove planktonic cells. The live cells in biofilms were estimated by XTT assay as mentioned above.

[5] = system: S. aureus Mu50; type: cell-based, Staphylococcus aureus; conditions: Mu50
Method: (§1) The antimicrobial activity spectrum of the WW peptide series was performed on a panel of Gram-positive and -negative bacteria using the standard broth micro-dilution method with minor modifications as described. […] There was a small change in the case of Pseudomonas aeruginosa and Acinetobacter baumannii up to two-fold. Four-fold changes were found for Staphylococcus aureus, Staphylococcus epidermidis, Escherichia coli, and Bacillus subtilis. However, we observed over eight-fold MIC changes for Klebsiella pneumoniae and vancomycin-resistant enterococcus (VRE). […] We also observed more than eight-fold changes in minimal bacterial killing concentrations.
(§2) The antibacterial activity of peptides was evaluated using a standard broth microdilution protocol with minor modifications as previously described. In brief, logarithmic phase bacterial cultures (i.e., optical density at 600 nm ≈ 0.5) were diluted to OD600~0.001 and partitioned into a 96-well polystyrene microplate at 90 μL per well. After treatment with 10 μL of peptide solutions two-fold diluted to various concentrations, microplates were incubated at 37 °C overnight and read on a ChroMate 4300 Microplate Reader at 630 nm (GMI, Ramsey, MN). […] Minimal bactericidal concentration (MBC) was determined by plating the clear wells at MIC or above. The peptide concentration that caused no bacterial growth on the petri dish is MBC.

[6] = system: B. subtilis 167; type: cell-based, Bacillus subtilis; conditions: 167
Method: as §1, §2

[7] = system: E. faecium VRE; type: cell-based; conditions: VRE
Method: as §1, §2

[8] = system: E. coli K12; type: cell-based, Escherichia coli; conditions: K12
Method: as §1, §2

[9] = system: P. aeruginosa PAO1; type: cell-based, Pseudomonas aeruginosa; conditions: PAO1
Method: as §1, §2

[10] = system: A. baumannii B28-16; type: cell-based, Acinetobacter baumannii; conditions: B28-16
Method: as §1, §2

[11] = system: S. aureus USA300; type: cell-based, Staphylococcus aureus; conditions: USA300
Method: as §2

[12] = system: E. coli ATCC 25922; type: cell-based, Escherichia coli; conditions: ATCC 25922
Method: (§3) To gain additional insight, we also compared the effects of physiological saline and human serum on the antibacterial activities of WW291-WW298 using both E. coli and S. aureus (Table 3). In our assays, salts and serum were present during the entire course of the experiment. […] Thus, WW295 and WW298 stand out in terms of activity robustness (bold in Table 3).
as §2

[13] = system: S. aureus USA300 LAC; type: cell-based, Staphylococcus aureus; conditions: USA300
Method: as §3, §2

[14] = system: chicken red blood cells; test: Hemolytic assay; type: cell-based
Method: (§4) Hemolytic assays of peptides were performed as previously described. Briefly, human red blood cells (hRBCs) obtained from UNMC Blood Bank, or chicken or porcine blood cells purchased from commercial sources as previously described, were washed three times with phosphate buffer saline (PBS) and diluted to a 2% solution (V/v). After peptide treatment, incubation at 37 °C for one hour, and centrifugation at 13,000 rpm, aliquots of the supernatant were carefully transferred to a fresh 96-well microplate. The amount of hemoglobin released was measured at 545 nm. The percent lysis was calculated by assuming 100% release when human blood cells were treated with 2% Triton X-100, and 0% release when incubated with PBS buffer. The peptide concentration that caused 50% lysis of hRBCs is defined as HC50.

[15] = system: human red blood cells; test: Hemolytic assay; type: cell-based; conditions: red cells of human
Method: as §4

[16] = system: monkey kidney Vero E6 cells; type: cell-based
Method: Peptides were assayed for potential in vitro toxicity against human keratinocytes (HaCaT) and THP-1 cells as previously described. THP-1 monocytes were differentiated into macrophages by adding 30 ng/mL of phorbol 12-myristate 13-acetate (PMA; Sigma-Aldrich) to RPMI 1640 supplemented with 10% fetal calf serum culture (FCS) medium for 16 h. Briefly, cells were seeded at a density of 3 × 10^4 per well in a tissue culture 96-well plate in DMEM/RPMI supplemented with 10% fetal bovine serum (FBS), and incubated at 37 °C in a 5% CO2 atmosphere for 24 h. African green monkey kidney Vero E6 cells were cultivated in EMEM in the same manner. Before antimicrobial treatment, wells were replaced with serum free media and treated with peptides at different concentrations for one hour. After incubation, the cells were washed and incubated with 100 μL of DMEM media containing 20 μL of 3-(4,5-dimethylthiazol-2-yl)-5-(3-carboxymethoxyphenyl)-2-(4-sulfophenyl)-2H-tetrazolium (MTS) reagent for two hours at 37 °C. […] Absorbance readings at 492 nm were taken using a ChroMate microplate reader (GMI, Ramsey, MN, USA).

[17] = system: K. pneumonia ATCC 13883; conditions: cited from earlier work
Source text: Table 2 Antibacterial activities of the WW peptides against various bacteria. | column: Minimal Inhibitory Concentration (MIC, μM) / KP ^a

CCCCCCCCCC(=O)N[C@@H](Cc1c[nH]c2ccccc12)C(=O)N[C@H](CC(N)=O)C(=O)N[C@@H](CC(=O)O)C(=O)N[C@@H]1C(=O)NCC(=O)N[C@@H](CCCN)C(=O)N[C@@H](CC(=O)O)C(=O)N[C@H](C)C(=O)N[C@@H](CC(=O)O)C(=O)NCC(=O)N[C@H](CO)C(=O)N[C@@H]([C@H](C)CC(=O)O)C(=O)N[C@@H](CC(=O)c2ccccc2N)C(=O)O[C@@H]1C [daptomycin, reference compound]
outer and inner membrane permeation (nitrocefin 490 nm, ONPG 420 nm) [1]: poor in membrane permeation | membrane depolarization (DiBAC4(3) fluorescence) [2]: significantly less membrane depolarization | inhibition of MRSA adherence [3]: ~ 50% | disruption of established biofilms (24 h) ([4]; 3.1 µM): much less effective than WW298 | disruption of established biofilms (24 h) ([4]; 6.25 µM): eradicating almost all the established biofilm

WWWLRKIW [WW291]
Minimal Inhibitory Concentration (MIC), SA [5]: 3.1 µM | Minimal Inhibitory Concentration (MIC), BS [6]: 6.25 µM | Minimal Inhibitory Concentration (MIC), VRE [7]: 25 µM | Minimal Inhibitory Concentration (MIC), EC [8]: 6.2 to 12.5 µM | Minimal Inhibitory Concentration (MIC), PA [9]: 50 µM | Minimal Inhibitory Concentration (MIC), AB [10]: 6.25 µM | MBC, USA300 [11]: 6.2 µM | MIC, +150 mM NaCl [12]: 12.5 µM | MIC, +10% Human Serum [12]: >25 µM | MIC, TSB [12]: 6.2 to 12.5 µM | MIC, +150 mM NaCl [13]: 3.1 µM | MIC, +10% Human Serum [13]: 25 µM | MIC, TSB [13]: 3.1 µM | Chicken RBC, concentration that caused 50% red blood cell lysis (HC50) [14]: 50 µM | Human RBC, concentration that caused 50% red blood cell lysis (HC50) [15]: 30 µM | Vero Cells, concentration that caused 50% cell death (LC50) [16]: 100 µM | Minimal Inhibitory Concentration (MIC), KP [17]: 12.5 µM
